Data from US20260345792A1, “PROTACs AND HyT-PD MOLECULES FOR TARGETED PROTEIN DEGRADATION OF DCAF15 AND THEIR USE IN THE TREATMENT OF AMYLOIDOSIS” (KRÆFTENS BEKÆMPELSE, priority 2023, published 2026).
Where a SMILES comes first, the peptide text is derived from it. The star is where a group is joined. Cbz = O=C(OCc1ccccc1)*

Tests used:
[1] = tested on: HCT116 cells; test: Clearance of protein aggregates: puromycin with Bafilomycin or MG132; format: cell-based; details: with 5 μg/ml puromycin 4 h; 200 nM Bafilomycin or 5 μM MG132
Procedure: Cells were fixed and stained for ubiquitin and p62. A representative experiment is shown (n=3).
HCT116 cells were treated with 5 μg/ml puromycin for 4 h alone or in combination with 200 nM Bafilomycin-1 or 5 μM MG132. Cells were fixed and stained for ubiquitin and p62. A representative experiment is shown (n=3) (see FIG. 3A). The double positive puncta per cell was quantified (see FIG. 3B).

[2] = tested on: HCT116 cells; BE2C cells; test: Ubiquitin and p62 co-stained aggregates per cell after puromycin, by DCAF15 genotype; format: cell-based; details: 5 μg/ml puromycin, 4 h; DCAF15−/− vs WT and reconstituted cell lines
Procedure: Cells were stained for ubiquitinated proteins and p62. Separate and merged channels from a representative experiment are shown (n>3).
HCT116 cells with indicated genotypes were treated with 5 μg/ml puromycin for 4 h or left untreated (NT) before fixation. Cells were stained for ubiquitinated proteins and p62. Separate and merged channels from a representative experiment are shown (n>3) (see FIG. 1A). The number of ubiquitin and p62 co-stained aggregates per cell were quantified (see FIG. 1B.).
BE2C cells with indicated genotypes were treated and analysed as above (n=3). Separate and merged channels from a representative experiment are shown (n>3) (see FIG. 1C). The number of ubiquitin and p62 co-stained aggregates per cell were quantified (see FIG. 1D.).
Cell lines: WT (wild-type), DCAF15−/− (CRISPR-mediated stable DCAF15−/− knock-out cells), DCAF15−/−+WT 3xF (DCAF15−/− cells reconstituted with WT DCAF15 with 3×flag-tag).

[3] = tested on: HCT116 cells; test: Proliferation (confluency) and clonogenic survival after puromycin, by DCAF15 genotype; format: cell-based; details: 5 μg/ml puromycin 4 h
Procedure: Confluency was recorded with imaging every 4 h. Representative experiments with technical triplicates are shown (n=3).
HCT116 cells were treated with 5 μg/ml puromycin for 4 h or left untreated before being released into normal growth media for 72 h. Confluency was recorded with imaging every 4 h, representative experiments with technical triplicates (n=3) are shown (see FIG. 4A.). HCT116 cells were treated with 5 μg/ml puromycin for 4 h before release into full media or left untreated for 7 days before fixation and crystal violet staining (see FIG. 4B.). Quantification of FIG. 4B as integrated density per well (see FIG. 4C).

[4] = tested on: DCAF15; details: Han et al., 2017 and WO 2022/169755; cited from earlier work
[5] = tested on: human cancer cell lines; details: cited from earlier work

SMILES | aggregate numbers in WT and reconstituted cell lines [1] | re-appearance of aggregates in DCAF15−/− cells [1] | ligand for DCAF15 [4] | other results
CO/C1=C\C(C)=C\[C@@H](C)[C@@H](O)[C@@H](C)C/C(C)=C/C=C/[C@H](OC)[C@@H]([C@@H](C)[C@@H](O)[C@H](C)[C@@]2(O)C[C@@H](O)[C@H](C)[C@@H](C(C)C)O2)OC1=O [Bafilomycin A1] | enhance aggregate numbers in WT and reconstituted cell lines | we do not detect any re-appearance of aggregates in DCAF15−/− cells after treatments | – | –
CC(C)C[C@@H](C=O)NC(=O)[C@H](CC(C)C)NC(=O)[C@H](CC(C)C)NC(=O)OCc1ccccc1 [MG132] (Cbz-Leu-Leu-Leu-aldehyde) | enhance aggregate numbers in WT and reconstituted cell lines | we do not detect any re-appearance of aggregates in DCAF15−/− cells after treatments | – | –
COc1ccc(C[C@H](N)C(=O)N[C@H]2[C@@H](O)[C@H](n3cnc4c(N(C)C)ncnc43)O[C@@H]2CO)cc1 [Puromycin, puromycin] | – | – | – | protein aggregation (co-localization of ubiquitin and p62) [2]: significant reduction of aggregates in DCAF15−/− cells relative to WT and reconstituted cell lines; clonogenic survival, sensitivity of DCAF15−/− cells ([3]; 7 days, crystal violet (FIGS. 4B and 4C)): insensitivity of DCAF15−/− cells to puromycin-induced toxicity; proliferation of DCAF15−/− cells ([3]; release for 72 h (FIG. 4A)): DCAF15−/− cells remain undeterred by puromycin treatment; proliferation rates in WT and reconstituted cell lines ([3]; release for 72 h (FIG. 4A)): significantly reduced proliferation rates
NS(=O)(=O)c1ccc(S(=O)(=O)Nc2cccc3c(Cl)c[nH]c23)cc1 [indisulam] | – | – | act as ligands for DCAF15 | inhibition of proliferation [5]: inhibits the proliferation of certain human cancer cell lines
O=C(NS(=O)(=O)c1ccc(Br)s1)c1ccc(Cl)cc1Cl [tasisulam] | – | – | act as ligands for DCAF15 | –
